A short description of the series: solvent given as SMILES.

The molecule `CC1(C)C(/C=C/C2=C(Oc3ccc(CCN=C=S)cc3Cl)C(=C/C=C3/N(CCCS(=O)(=O)[O-])c4ccccc4C3(C)C)/CCC2)=[N+](CCCS(=O)(=O)[O-])c2ccccc21` gave an absorption maximum (in CO) of 768 nm.

Turning to `Oc1ccc2ncccc2c1`, the absorption maximum runs as follows: (in CC#N) 331 nm; (in CCCC#N) 333 nm; (in CO) 331 nm; (in Cc1ccccc1) 332 nm; (in ClCCl) 330 nm.

On to `COc1nc(Cl)nc(Nc2ccc3c4c(cccc24)C(=O)c2ccccc2-3)n1`, for which the absorption maximum is, setting by setting: (in CC#N) 407 nm; (in CC(C)=O) 410 nm; (in CC(C)O) 417.01 nm; (in CCOC(C)=O) 411.02 nm; (in CO) 414.94 nm; (in Cc1ccccc1) 419.99 nm. For the same molecule, the absorption maximum (in Clc1ccccc1) is on record as 418.06 nm, the absorption maximum (in N#Cc1ccccc1) is 415.97 nm and the absorption maximum (in O=C1CCCCC1) is 414.94 nm.

Under “in C1CCOC1”, `CCCCCCc1ccsc1-c1cc2c3cc(-c4sccc4CCCCCC)c4nc(C(F)(F)C(F)(F)C(F)(F)F)nc5c(-c6sccc6CCCCCC)cc(c6cc(-c7sccc7CCCCCC)c7nc(C(F)(F)C(F)(F)C(F)(F)F)nc1c7c26)c3c45` gave an absorption maximum of 521 nm.

As to `COc1ccc(C2=N/C(=C\c3ccc(C#N)cc3)C(=O)O2)cc1OC`, the absorption maximum (in C1COCCO1) is 393 nm.

Take `COc1cc2c(cc1-c1ccc(C(F)(F)F)cc1)Cc1c3c(c4c(c1-2)-c1cc(OC)c(-c2ccc(C(F)(F)F)cc2)cc1C4)C(=O)N(CCC(C)C)C3=O`: the absorption maximum (in C1CCOC1) is recorded as 404 nm.

Turning to `COc1ccc(N(c2ccc(C=C(c3ccccc3)c3ccccc3)cc2)c2ccc(C=C(c3ccccc3)c3ccccc3)cc2)cc1`, the absorption maximum (in Cc1ccccc1) came out at 397 nm.

In turn, `CC1(C)c2ccccc2N(c2ccc3c(c2)S(=O)(=O)c2cc(N4c5ccccc5C(C)(C)c5ccccc54)ccc2C3(C)C)c2ccccc21` displayed an absorption maximum (in ClCCl) of 282 nm.

In turn, `O=c1cc2c(-c3c(O)c4cccc5ccc6oc(=O)cc3c6c54)c(O)c3cccc4ccc(o1)c2c43` came in with an absorption maximum (in CC1CCCO1) of 486 nm.

In the case of `c1cc2cc(c1)c1ccc3ccc4ccc(cc4c3c1)c1ccc3ccc4ccc(cc4c3c1)c1cccc2c1`, the absorption maximum (in Cc1ccccc1) is 355 nm.

In turn, `COC(=O)C(NC(=O)OC(C)(C)C)c1ccc2oc(-c3cccc(Oc4ccccc4)c3)nc2c1` (stereo not given) gave an absorption maximum (in CC1CCCCC1) of 321 nm, an absorption maximum (in CC#N) of 305 nm and an absorption maximum (in CO) of 305 nm.

Molecule `CCCCCCC(CCCCCC)N1C(=O)c2cccc3c(-c4ccc(N(C)C)cc4)ccc(c23)C1=O` yielded an absorption maximum (in CCCCCC) of 401.2 nm; an absorption maximum (in CCCCCCCCCCCCCC) of 403.8 nm; an absorption maximum (in CCCCCCCCCCCO) of 428.6 nm; an absorption maximum (in CCCCO) of 430.2 nm; an absorption maximum (in CN(C)C=O) of 433.8 nm; an absorption maximum (in Cc1ccccc1) of 418.2 nm. The molecule also returned an absorption maximum (in ClC(Cl)Cl) of 426.2 nm.

Regarding `CCN(CC)c1cc(F)c(C(=O)c2cc(F)c(N(CC)CC)cc2F)cc1F`, the absorption maximum (in CCO) is listed as 369 nm.

On to `N#CC1=CC(Br)=CC(C#N)=P1(c1ccccc1)c1ccccc1`, for which the absorption maximum (in ClC(Cl)Cl) stood at 482 nm.

Consider `CC(C)(C)NC(=O)c1cccc2ccc3c4ccccc4c4ccccc4c3c12`, for which the absorption maximum (in ClCCl) was 332 nm.

Take `CC1=CC(C)=[N+]2C1=C(c1ccccc1)c1c(C)cc(/C=C/c3ccccc3)n1[B-]2(F)F`: the absorption maximum (in CC#N) is reported as 560 nm.

Molecule `C[P+]1(c2ccccc2)C2=C(c3ccccc31)S(=O)(=O)c1ccccc12` (stereo not given) gave an absorption maximum (in CC#N) of 388 nm, an absorption maximum (in CCO) of 319 nm and an absorption maximum (in ClCCl) of 395 nm.

The molecule `C=C[Si](c1c2ccccc2cc2ccccc12)(c1c2ccccc2cc2ccccc12)c1c2ccccc2cc2ccccc12` had an absorption maximum (in ClC(Cl)Cl) of 404 nm.

The values above are taken from the Deep4Chem optical property database.
